Data from patent EP0951284B1, “[…] DERIVATIVES” (priority 1996, dated 1998).
pIC50: −log10 of the molar value. Counter-ions that a name gives are not always drawn.

Columns and labels:
[1] = molecular target: T1, Human erythrocyte acetylcholinesterase (Homo sapiens, UniProt P22303); test: In vitro measurement of acetylcholinesterase (AChE) inhibition (Ellman method); assay type: biochemical; settings: at time of peak activity, incubation 15 to 60 minutes at 37°C
T1 construct: Human erythrocyte acetylcholinesterase (type XIII, Sigma Israel); purchased Sigma Israel type XIII; host or cells: human erythrocytes
Procedure: Human erythrocyte acetylcholinesterase (type XIII, Sigma Israel), was prepared in a stock solution of 1U/ml, containing Triton (1%) and bovine serum albumin (0.05%) in phosphate buffer (pH 8). The enzyme (0.05U) was incubated with 3-5 different concentrations of test compound (in triplicate) for periods of from 15 to 60 minutes at 37°C. […] The percentage inhibition of AChE by each concentration of drug is calculated by comparison with that of enzyme in the absence of drug.

[2] = Acute toxicity in mice (sub-cutaneous, lethality within 6 hours); settings: mouse, in vivo, sc; for selectivity ratio: LD50 divided by ED50 (acetylcholine esterase ex vivo), read-out: Therapeutic Ratio (LD/AC); for LD50 at 6 h: sub-cutaneous, mice, within 6 hours
Procedure: Drugs were administered sub-cutaneously in at least 3 doses, to a minimum of 10 mice per dose. […] Therapeutic Ratio was calculated as LD50 divided by ED50(acetylcholine esterase ex vivo).

MAO-B [3] = test: Inhibition of MAO activity ex vivo (brain tissue), PEA substrate; assay type: in vivo, mice; settings: mouse brain tissue
Procedure: (§1) Male Sabra mice, weighing 45-50g were injected with test compound solutions (prepared in 0.9% saline). Each dose was administered to two or three mice. The mice were sacrificed two hours after drug administration or at a time corresponding to the peak AChE inhibition time (see Table 6). The brain and liver were rapidly dissected and stored in appropriate vials on ice. The tissues were weighed, diluted to 1/20 in sucrose 0.3M and stored at -20°C before performance of the MAO assay described above. The results given in Table 6 relate to measurements made on brain tissue only.

MAO-A [4] = test: Inhibition of MAO activity ex vivo (brain tissue), 5-HT substrate; assay type: in vivo, mice; settings: mouse brain tissue
Procedure: as §1

mice = test: Survival time of mice in hypobaric hypoxic episode; assay type: in vivo
Source text: The model is based on that described in Nakanishi, M. et al. Life Sci. (1973) 13: 467; Oshiro, et al., J. Med. Chem. (1991) 34: 2004-2013; and US Patent 4,788,130.
A 12 liter desiccator (desiccator A) and a 2.5 liter desiccator (desiccator B) were separately connected to a vacuum pump. Desiccator B was disconnected and allowed to equilibrate with room air whilst desiccator A was evacuated to a pressure of 100mmHg. Four male ICR albino mice (22-28g) were placed in desiccator B. Desiccator B was then closed to room air and connected to desiccator A. The pressure inside desiccator B was monitored using a mercury manometer and at the point the pressure in desiccator B reached 200mmHg (usually within 14 seconds), the two desiccators were disconnected from the vacuum pump and the pump switched off. The survival time from the moment of induction of hypoxia to the time of cessation of respiration was recorded. for each mouse for a maximum of 15 minutes after which time room air was reintroduced to desiccator B. Survivors were monitored for signs of lethargy or vitality.
Effect of drug treatment was assessed as the percent of the survival time of the drug treated group with respect to the saline injected or vehicle injected control group. Control groups were run twice, before and after each experimental group and consisted of 8 mice in groups of 4 mice to ensure a constant residual volume of oxygen in all tests. The effect of each dose of test drug was determined in duplicate i.e. two groups of 4 mice.
Positive reference drugs were sodium pentobarbital at a dose of 40 mg/kg, and diazepam 10 mg/kg given 0.5h prior to hypoxia, physostigmine 0.2 and 0.4 mg/kg and neostigmine 0.2 mg/kg given sc 30 min before hypoxia. Methyl atropine 1 mg/kg was given sc. 10 min. before physostigmine.
The volume of injection was 0.2-0.3 mL per mouse (10 mL/kg). The initial dose was about one third of the reported LD50 for acetylcholine esterase inhibition. If no protection could be obtained, the dose was further increased to the nearest non-toxic dose. In case of protection, the dose was further reduced in an attempt to locate the "protective" dose range.

MAO-A [5] = molecular target: T2, MAO-A (Rattus norvegicus, UniProt P21396); test: Inhibition of MAO activity in vitro, rat brain homogenate, 5-HT substrate
T2 sequence (P21396 1-526): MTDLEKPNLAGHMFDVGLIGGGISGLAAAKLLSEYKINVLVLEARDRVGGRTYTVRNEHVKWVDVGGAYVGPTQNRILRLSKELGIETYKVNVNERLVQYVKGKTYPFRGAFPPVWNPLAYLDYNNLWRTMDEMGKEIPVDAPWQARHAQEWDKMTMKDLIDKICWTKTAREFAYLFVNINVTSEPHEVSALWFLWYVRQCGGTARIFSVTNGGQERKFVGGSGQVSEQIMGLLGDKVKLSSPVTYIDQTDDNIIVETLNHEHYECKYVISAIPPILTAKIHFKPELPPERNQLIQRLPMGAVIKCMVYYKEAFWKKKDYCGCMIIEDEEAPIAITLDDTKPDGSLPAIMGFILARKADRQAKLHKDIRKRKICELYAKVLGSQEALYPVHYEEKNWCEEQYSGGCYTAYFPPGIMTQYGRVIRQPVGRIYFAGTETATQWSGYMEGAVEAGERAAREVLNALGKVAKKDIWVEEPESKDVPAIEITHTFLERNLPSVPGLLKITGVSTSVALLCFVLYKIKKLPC
Procedure: (§2) The MAO enzyme source was a homogenate of rat brain in 0.3M sucrose, which was centrifuged at 600G for 15 minutes. The supernatant was diluted appropriately in 0.05M phosphate buffer, and pre-incubated with serial dilutions of test compounds for 20 minutes at 37°C. ^14C-Labeled substrates (2-phenylethylamine, hereinafter PEA; 5-hydroxytryptamine, hereinafter 5-HT) were then added, and the incubation continued for a further 20 minutes (PEA), or 30-45 minutes (5-HT). Substrate concentrations used were 50µM (PEA) and 1mM (5-HT). In the case of PEA, enzyme concentration was chosen so that not more than 10% of the substrate was metabolized during the course of the reaction. The deaminated products were extracted into toluene-ethyl acetate (1:1, v/v) containing 0.6% (w/v) 2,5-diphenyloxazole prior to determination by liquid scintillation counting. Radioactivity in the eluate indicates the production of neutral and acidic metabolites formed as a result of MAO activity. Activity of MAO in the sample was expressed as a percentage of control activity in the absence of inhibitors after subtraction of appropriate blank values The activity determined using PEA as substrate is referred to as MAO-B, and that determined using 5-HT as MAO-A.

MAO-B [6] = molecular target: T3, MAO-B (Rattus norvegicus, UniProt P19643); test: Inhibition of MAO activity in vitro, rat brain homogenate, PEA substrate; assay type: biochemical; parameters: The MAO enzyme source was a homogenate of rat brain in 0.3M sucrose; from tissue; host or cells: rat brain homogenate (600G supernatant); settings: PEA 50µM
T3 sequence (P19643 1-520): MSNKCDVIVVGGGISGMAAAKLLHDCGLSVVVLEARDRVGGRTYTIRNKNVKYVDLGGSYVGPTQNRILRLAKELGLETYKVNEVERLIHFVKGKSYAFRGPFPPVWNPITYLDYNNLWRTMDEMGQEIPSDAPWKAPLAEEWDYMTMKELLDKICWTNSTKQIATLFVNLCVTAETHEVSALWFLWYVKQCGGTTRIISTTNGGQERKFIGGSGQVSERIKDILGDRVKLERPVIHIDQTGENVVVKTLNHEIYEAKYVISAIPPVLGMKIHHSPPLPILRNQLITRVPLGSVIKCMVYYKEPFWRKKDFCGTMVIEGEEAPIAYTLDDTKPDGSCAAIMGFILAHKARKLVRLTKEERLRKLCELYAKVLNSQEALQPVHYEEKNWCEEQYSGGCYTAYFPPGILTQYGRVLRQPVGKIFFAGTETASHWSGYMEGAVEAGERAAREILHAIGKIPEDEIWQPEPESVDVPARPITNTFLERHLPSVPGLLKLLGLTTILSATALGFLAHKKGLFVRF
Procedure: as §2

[7] = 4.1 mg/kg sc, 60 min before hypoxia
[8] = 6.2 mg/kg sc, 60 min before hypoxia

T1 sequence (P22303 32-617 isoform P22303-2 limits assumed): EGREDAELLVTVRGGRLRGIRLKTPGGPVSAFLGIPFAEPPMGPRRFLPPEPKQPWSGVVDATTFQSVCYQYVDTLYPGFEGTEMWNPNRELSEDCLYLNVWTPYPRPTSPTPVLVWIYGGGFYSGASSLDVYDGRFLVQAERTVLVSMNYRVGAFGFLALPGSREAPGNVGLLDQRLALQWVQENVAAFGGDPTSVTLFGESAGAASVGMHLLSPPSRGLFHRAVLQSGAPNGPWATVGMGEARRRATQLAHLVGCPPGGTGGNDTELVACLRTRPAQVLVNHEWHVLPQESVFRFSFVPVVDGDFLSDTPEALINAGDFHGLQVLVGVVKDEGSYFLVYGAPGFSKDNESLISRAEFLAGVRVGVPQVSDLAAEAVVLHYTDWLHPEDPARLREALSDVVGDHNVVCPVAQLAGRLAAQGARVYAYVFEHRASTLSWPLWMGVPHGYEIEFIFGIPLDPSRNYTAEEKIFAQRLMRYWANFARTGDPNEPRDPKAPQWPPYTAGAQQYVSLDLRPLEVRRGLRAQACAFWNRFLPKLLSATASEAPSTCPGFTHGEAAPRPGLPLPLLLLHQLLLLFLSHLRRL

Compound | pIC50 [1] | selectivity ratio [2] | LD50 at 6 h [2] | MAO-B Inhibition Ex vivo ED50 (MAO-B [3]) | MAO-A Inhibition Ex vivo ED50 (MAO-A [4]) | Protection (% of control) (mice; 2 mg/kg sc, 30 min before hypoxia) | Protection (% of control) (mice; 2 mg/kg sc, 60 min before hypoxia) | Protection (% of control) (mice; 4.1 mg/kg sc, 30 min before hypoxia) | Protection (% of control) (mice; [7]) | Protection (% of control) (mice; [8]) | pIC50 (MAO-A [5]) | pIC50 (MAO-B [6]) | Protection (% of control) (mice; 15 mg/kg sc, 60 min before hypoxia) | Protection (% of control) (mice; 31 mg/kg sc, 60 min before hypoxia) | Protection (% of control) (mice; 62 mg/kg sc, 60 min before hypoxia) | Protection (% of control) (mice; 94 mg/kg sc, 60 min before hypoxia) | Protection (% of control) (mice; 4.5 mg/kg sc, 60 min before hypoxia) | Protection (% of control) (mice; 7 mg/kg sc, 60 min before hypoxia)
C#CCNCCc1cccc(OC(=O)N(C)C)c1 [Compound 11] | 6.09 | 13.8 | 44.2 µmol/kg | >>30 µmoles/kg | 40 µmol/kg | 302±212 % of control | 128±40 % of control | 501±201 % of control | 416±211 % of control | 331±168 % of control | 5.60 | 4.60 |  |  |  |  |  | 
C#CCNC(C)Cc1cccc(OC(=O)N(C)C)c1 (centres unmarked) [Compound 16] | 6.43 | 18.3 | 42 µmol/kg | >20 µmol/kg | >20 µmol/kg |  |  |  | 335±202 % of control | 324±155 % of control | 5.15 | 5.22 | toxic |  |  |  |  | 
C#CCNC(C)Cc1cccc(OC(=O)N(C)CC)c1 (stereo not drawn) [Compound 17, 3-(N-Me,N-Etcarbamyloxy)α-methyl, N-propargyl phenethylamine.HCl] | 4.44 | 9.4 | 600 µmol/kg | 40 µmol/kg | >40 µmol/kg |  |  |  |  |  | 4.92 | 5.70 |  | 149±44 % of control | 419±122 % of control | 281±158 % of control |  | 
C#CCN(C)CCc1cccc(OC(=O)N(C)C)c1 [Compound 12] | 6.06 | 11.5 | 46 µmol/kg | 21 µmol/kg | 4 µmol/kg |  |  |  |  |  | 6.42 | 5.60 |  |  |  |  | 97±36 % of control | 217±120 % of control
